From PubChem BioAssay AID1963982 (Molecular Pharmacology Branch, DTP, NCI, 2024)
Values belong to the compound of their own block, whether it stands above or below them.

Test system: 313798-341-R-J2-PDC spheroids, viability
Experiment: Anticancer human tumor 313798-341-R-J2-PDC patient-derived cervical squamous cell carcinoma cell line growth inhibition [PI3K]
Conditions: spheroids with HUVEC and MSC; for IC50: curve of first compound; for viability, T/C: stronger effect = lower value
Outline: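 Combination activity was assessed by viability in multicellular tumor spheroids carrying HUVEC and MSC components. Agents were tested with PI3K inhibitors from a Cmax-based top dose (or 10 microM) downward in half-log increments.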

[1] = second compound 0.00316 µM, first compound 0.0316 µM
[2] = second compound 0.00316 µM, first compound 0.1 µM
[3] = second compound 0.00316 µM, first compound 0.316 µM
[4] = second compound 0.00316 µM, first compound 1 µM
[5] = second compound 0.00316 µM, first compound 3.16 µM
[6] = second compound 0.00316 µM, first compound 10 µM
[7] = second compound 0.01 µM, first compound 0.0316 µM
[8] = second compound 0.01 µM, first compound 0.1 µM
[9] = second compound 0.01 µM, first compound 0.316 µM
[10] = second compound 0.01 µM, first compound 1 µM
[11] = second compound 0.01 µM, first compound 3.16 µM
[12] = second compound 0.01 µM, first compound 10 µM
[13] = second compound 0.0316 µM, first compound 0.0316 µM
[14] = second compound 0.0316 µM, first compound 0.1 µM
[15] = second compound 0.0316 µM, first compound 0.316 µM
[16] = second compound 0.0316 µM, first compound 1 µM
[17] = second compound 0.0316 µM, first compound 3.16 µM
[18] = second compound 0.0316 µM, first compound 10 µM
[19] = second compound 0.1 µM, first compound 0.0316 µM
[20] = second compound 0.1 µM, first compound 0.1 µM
[21] = second compound 0.1 µM, first compound 0.316 µM
[22] = second compound 0.1 µM, first compound 1 µM
[23] = second compound 0.1 µM, first compound 3.16 µM
[24] = second compound 0.1 µM, first compound 10 µM
[25] = second compound 0.316 µM, first compound 0.0316 µM
[26] = second compound 0.316 µM, first compound 0.1 µM
[27] = second compound 0.316 µM, first compound 0.316 µM
[28] = second compound 0.316 µM, first compound 1 µM
[29] = second compound 0.316 µM, first compound 3.16 µM
[30] = second compound 0.316 µM, first compound 10 µM
[31] = second compound 1 µM, first compound 0.0316 µM
[32] = second compound 1 µM, first compound 0.1 µM
[33] = second compound 1 µM, first compound 0.316 µM
[34] = second compound 1 µM, first compound 1 µM
[35] = second compound 1 µM, first compound 3.16 µM
[36] = second compound 1 µM, first compound 10 µM
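Also: spheroids exposed to compounds for seven days.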
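For viability, T/C in this document: 100% = DMSO vehicle control viability.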

IC50 (second compound 0.00316 µM): > 10000 nM
IC50 (second compound 0.01 µM): > 10000 nM
IC50 (second compound 0.0316 µM): > 10000 nM
IC50 (second compound 0.1 µM): < 31.6 nM
IC50 (second compound 0.316 µM): < 31.6 nM
IC50 (second compound 1 µM): < 31.6 nM
Structure (SMILES): C#Cc1c(F)ccc2cc(O)cc(-c3ncc4c(N5CC6CCC(C5)N6)nc(OCC56CCCN5CC(F)C6)nc4c3F)c12 (stereo not drawn) + COc1c(OCCCN2CCOCC2)ccc2c3n(c(=NC(=O)c4cnc(N)nc4)nc12)CCN3
viability, T/C [1]: 107%
viability, T/C [2]: 103%
viability, T/C [3]: 107%
viability, T/C [4]: 110%
viability, T/C [5]: 108%
viability, T/C [6]: 100%
viability, T/C [7]: 93.6%
viability, T/C [8]: 106%
viability, T/C [9]: 105%
viability, T/C [10]: 108%
viability, T/C [11]: 98.7%
viability, T/C [12]: 102%
viability, T/C [13]: 70.2%
viability, T/C [14]: 83.3%
viability, T/C [15]: 96.8%
viability, T/C [16]: 78.7%
viability, T/C [17]: 72.7%
viability, T/C [18]: 77.2%
viability, T/C [19]: 40.1%
viability, T/C [20]: 47.7%
viability, T/C [21]: 45.1%
viability, T/C [22]: 42.1%
viability, T/C [23]: 39.5%
viability, T/C [24]: 32.6%
viability, T/C [25]: 17.8%
viability, T/C [26]: 18.2%
viability, T/C [27]: 16.7%
viability, T/C [28]: 13.4%
viability, T/C [29]: 15.3%
viability, T/C [30]: 6.87%
viability, T/C [31]: 9.9%
viability, T/C [32]: 13.1%
viability, T/C [33]: 12.1%
viability, T/C [34]: 11.2%
viability, T/C [35]: 8.79%
viability, T/C [36]: 4.83%

IC50 (second compound 0.00316 µM): > 10000 nM
IC50 (second compound 0.01 µM): > 10000 nM
IC50 (second compound 0.0316 µM): > 10000 nM
IC50 (second compound 0.1 µM): < 31.6 nM
IC50 (second compound 0.316 µM): < 31.6 nM
IC50 (second compound 1 µM): < 31.6 nM
Structure (SMILES): C=CC(=O)N1CCN(c2nc(=O)n(-c3c(C)ccnc3C(C)C)c3nc(-c4c(O)cccc4F)c(F)cc23)C(C)C1 (stereo not drawn) + COc1c(OCCCN2CCOCC2)ccc2c3n(c(=NC(=O)c4cnc(N)nc4)nc12)CCN3
viability, T/C [1]: 98.3%
viability, T/C [2]: 103%
viability, T/C [3]: 106%
viability, T/C [4]: 96.1%
viability, T/C [5]: 101%
viability, T/C [6]: 106%
viability, T/C [7]: 92%
viability, T/C [8]: 99.4%
viability, T/C [9]: 106%
viability, T/C [10]: 112%
viability, T/C [11]: 112%
viability, T/C [12]: 96.5%
viability, T/C [13]: 70.6%
viability, T/C [14]: 80.3%
viability, T/C [15]: 91.4%
viability, T/C [16]: 90.4%
viability, T/C [17]: 83.6%
viability, T/C [18]: 82.9%
viability, T/C [19]: 44.8%
viability, T/C [20]: 48.9%
viability, T/C [21]: 52.1%
viability, T/C [22]: 48.7%
viability, T/C [23]: 50.1%
viability, T/C [24]: 42.9%
viability, T/C [25]: 16.8%
viability, T/C [26]: 17.9%
viability, T/C [27]: 15.4%
viability, T/C [28]: 18.2%
viability, T/C [29]: 19.1%
viability, T/C [30]: 13.5%
viability, T/C [31]: 12%
viability, T/C [32]: 12.6%
viability, T/C [33]: 12.8%
viability, T/C [34]: 13.7%
viability, T/C [35]: 14.6%
viability, T/C [36]: 10.2%

IC50 (second compound 0.00316 µM): < 31.6 nM
IC50 (second compound 0.01 µM): < 31.6 nM
IC50 (second compound 0.0316 µM): < 31.6 nM
IC50 (second compound 0.1 µM): < 31.6 nM
IC50 (second compound 0.316 µM): < 31.6 nM
IC50 (second compound 1 µM): < 31.6 nM
Structure (SMILES): CC1(C)CCC(Nc2ncc(C(F)(F)F)c(-c3c[nH]c4c(P(C)(C)=O)c(C#N)ccc34)n2)CN1 (stereo not drawn) + COc1c(OCCCN2CCOCC2)ccc2c3n(c(=NC(=O)c4cnc(N)nc4)nc12)CCN3
viability, T/C [1]: 44.6%
viability, T/C [2]: 42.3%
viability, T/C [3]: 39.7%
viability, T/C [4]: 43.9%
viability, T/C [5]: 45.4%
viability, T/C [6]: 33.7%
viability, T/C [7]: 39.6%
viability, T/C [8]: 34.7%
viability, T/C [9]: 36.8%
viability, T/C [10]: 38.1%
viability, T/C [11]: 43.1%
viability, T/C [12]: 29.1%
viability, T/C [13]: 27.4%
viability, T/C [14]: 27.9%
viability, T/C [15]: 27.4%
viability, T/C [16]: 27.9%
viability, T/C [17]: 26.5%
viability, T/C [18]: 16.5%
viability, T/C [19]: 18.9%
viability, T/C [20]: 21.1%
viability, T/C [21]: 20%
viability, T/C [22]: 20.2%
viability, T/C [23]: 21.5%
viability, T/C [24]: 3.93%
viability, T/C [25]: 12.2%
viability, T/C [26]: 11.7%
viability, T/C [27]: 12.2%
viability, T/C [28]: 12%
viability, T/C [29]: 8.87%
viability, T/C [30]: 1.12%
viability, T/C [31]: 9.94%
viability, T/C [32]: 9.34%
viability, T/C [33]: 7.8%
viability, T/C [34]: 7.89%
viability, T/C [35]: 5.87%
viability, T/C [36]: 1.15%

IC50 (second compound 0.00316 µM): > 10000 nM
IC50 (second compound 0.01 µM): > 10000 nM
IC50 (second compound 0.0316 µM): > 10000 nM
IC50 (second compound 0.1 µM): < 31.6 nM
IC50 (second compound 0.316 µM): < 31.6 nM
IC50 (second compound 1 µM): < 31.6 nM
Structure (SMILES): Cn1nccc1Nc1nccc(-c2ccn(C(CO)c3ccc(Cl)c(F)c3)c(=O)c2)n1 (stereo not drawn) + COc1c(OCCCN2CCOCC2)ccc2c3n(c(=NC(=O)c4cnc(N)nc4)nc12)CCN3
viability, T/C [1]: 100%
viability, T/C [2]: 97%
viability, T/C [3]: 106%
viability, T/C [4]: 111%
viability, T/C [5]: 102%
viability, T/C [6]: 90.1%
viability, T/C [7]: 104%
viability, T/C [8]: 108%
viability, T/C [9]: 97.8%
viability, T/C [10]: 106%
viability, T/C [11]: 94%
viability, T/C [12]: 89.5%
viability, T/C [13]: 75.8%
viability, T/C [14]: 83.2%
viability, T/C [15]: 69.5%
viability, T/C [16]: 77.1%
viability, T/C [17]: 66.5%
viability, T/C [18]: 55.6%
viability, T/C [19]: 38.2%
viability, T/C [20]: 43.3%
viability, T/C [21]: 41%
viability, T/C [22]: 38.4%
viability, T/C [23]: 34.7%
viability, T/C [24]: 32%
viability, T/C [25]: 16.6%
viability, T/C [26]: 15.3%
viability, T/C [27]: 12.2%
viability, T/C [28]: 9.87%
viability, T/C [29]: 9.43%
viability, T/C [30]: 7.53%
viability, T/C [31]: 10.9%
viability, T/C [32]: 9.68%
viability, T/C [33]: 7.11%
viability, T/C [34]: 5.54%
viability, T/C [35]: 4.07%
viability, T/C [36]: 2.53%
